Results from PubChem BioAssay AID1033 (Sanford-Burnham Center for Chemical Genomics, 2008).
Activity calls are given as the source filed them. How the calls were made is not given here.

Target: Chaperone protein DnaK (Escherichia coli (strain K12)) (UniProt P0A6Y8)
Experiment: E. coli DnaK SBD ligand binding – biophysical, NMR, chaperone (AID 1033)
Settings: Purified DnaK SBD

Chain of Chaperone protein DnaK (Escherichia coli (strain K12)) (P0A6Y8 whole entry, looked up): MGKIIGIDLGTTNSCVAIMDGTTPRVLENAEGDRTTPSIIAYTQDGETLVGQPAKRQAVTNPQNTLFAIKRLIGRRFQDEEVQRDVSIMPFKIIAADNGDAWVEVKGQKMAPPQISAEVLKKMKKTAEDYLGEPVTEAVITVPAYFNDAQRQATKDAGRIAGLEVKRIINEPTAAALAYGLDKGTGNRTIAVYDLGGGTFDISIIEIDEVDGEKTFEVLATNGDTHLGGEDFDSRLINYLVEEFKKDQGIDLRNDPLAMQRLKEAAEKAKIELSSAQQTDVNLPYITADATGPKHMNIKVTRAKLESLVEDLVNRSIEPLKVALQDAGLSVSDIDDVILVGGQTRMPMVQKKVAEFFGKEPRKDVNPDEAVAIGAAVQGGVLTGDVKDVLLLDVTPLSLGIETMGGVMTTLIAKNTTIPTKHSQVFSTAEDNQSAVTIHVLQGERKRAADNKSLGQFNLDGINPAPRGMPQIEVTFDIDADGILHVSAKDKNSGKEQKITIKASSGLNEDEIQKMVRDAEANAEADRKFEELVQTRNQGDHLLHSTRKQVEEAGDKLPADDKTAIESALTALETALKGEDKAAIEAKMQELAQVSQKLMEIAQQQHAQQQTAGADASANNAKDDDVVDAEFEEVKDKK

Row | SMILES | Kd
1 | O=C(O)c1ccnn1-c1ccccc1 | > 4 mM (inactive)
2 | Oc1ccccc1N=Cc1cccnc1 | > 4 mM (inactive)
3 | CCc1cccc(C)c1NC(=O)c1cc(C)oc1C | > 4 mM (inactive)
4 | O=C(OCc1c(Cl)cccc1Cl)c1cnccn1 | > 4 mM (inactive)
5 | COc1cccc(NC(=O)c2cnn(C)c2Cl)c1 | > 4 mM (inactive)
6 | Cc1ccc(S(=O)(=O)CCc2ccccn2)cc1 | > 4 mM (inactive)
7 | N[C@@H](C(=O)O)[C@@H](O)[C@H](O)[C@H](O)CO | > 4 mM (inactive)
8 | O=C1CN(c2ccccc2)CC(=O)N1 | > 4 mM (inactive)
9 | CC(=O)c1cnc(Nc2nc(C)c3ccccc3n2)nc1C | > 4 mM (inactive)
10 | C[C@H]1C(=O)CCC2[C@]3(C)CC[C@@]4(C)C5CC(C)(C)CC[C@]5(C)CC[C@]4(C)C3CC[C@@]21C (stereo partly drawn) | > 4 mM (inactive)
11 | O=C(O)c1ccnc2ccccc12 | > 4 mM (inactive)
12 | Cc1noc(C)c1C(=O)Nc1ccccc1-c1ccccc1 | > 4 mM (inactive)
13 | Cn1nc(C(=O)N2CCOCC2)c2ccccc2c1=O | > 4 mM (inactive)
14 | COc1ccccc1NC(N)=S | > 4 mM (inactive)
15 | COC(=O)Cn1c2ccccc2c2nc(C)sc21 | > 4 mM (inactive)
16 | O=C(O)c1cc2ccccc2s1 | > 4 mM (inactive)
17 | CC(C)NC(=S)NCc1cnn(C)c1 | > 4 mM (inactive)
18 | CC(=O)Nc1cccc(NC(=O)c2ccco2)c1 | > 4 mM (inactive)
19 | Nc1cc(=O)[nH]c(=O)n1-c1ccccc1 | > 4 mM (inactive)
20 | COc1cc(/C=C2\SC(=S)NC2=O)ccc1O | > 4 mM (inactive)
21 | Cc1cc2ncc(C(=O)O)c(C)n2n1 | > 4 mM (inactive)
22 | [O-][n+]1cc(O)c(CN2CCOCC2)c2ccccc21 | > 4 mM (inactive)

Row | SMILES | Kd
23 | Cc1sc2nc3n(c(=O)c2c1C)CCCS3 | > 4 mM (inactive)
24 | CC(=O)Nc1ccc(C)cc1NC(C)=O | > 4 mM (inactive)
25 | COc1ccc(-c2cc(=O)c3ccccc3o2)cc1 | > 4 mM (inactive)
26 | CCN1CCn2c1nc(N1CCOCC1)nc2=O | > 4 mM (inactive)
27 | Cc1cc(O)cc(=O)o1 | > 4 mM (inactive)
28 | Cn1nc(C(=O)NCc2cccnc2)c2ccccc2c1=O | > 4 mM (inactive)
29 | CC1(C)NC(=O)N(CN2CCOCC2)C1=O | > 4 mM (inactive)
30 | NC(=O)COc1cccc2cccnc12 | > 4 mM (inactive)
31 | CCN1C(=O)N(CO)C2C1N(C)C(=O)N2C (stereo not drawn) | > 4 mM (inactive)
32 | O=C(Nc1ccccc1CO)c1ccccc1F | > 4 mM (inactive)
33 | c1ccn(Cc2ccncc2)c1 | > 4 mM (inactive)
34 | S=c1oc(-c2ccncc2)nn1CCc1ccncc1 | > 4 mM (inactive)
35 | Cc1nc2ccccc2c(=O)n1/N=C/c1ccco1 | > 4 mM (inactive)
36 | NC(=O)c1ccc(N2C(=O)C=CC2=O)cc1Cl | > 4 mM (inactive)
37 | CCCNC(CC(=O)Nc1cccnc1)C(=O)O (stereo not drawn) | > 4 mM (inactive)
38 | OCc1ccc2c(c1)OCCO2 | > 4 mM (inactive)
39 | C=CCc1ccc(OC(=O)c2ccccc2)c(OC)c1 | > 4 mM (inactive)
40 | COc1cc(OC)c2c(c1)O[C@H](c1ccc(OC)c(OC)c1)[C@@H](O)C2 | > 4 mM (inactive)
41 | CC(C(N)=O)N1C(=O)c2ccccc2C1=O (stereo not drawn) | > 4 mM (inactive)
42 | COC(=O)C[C@H]1C(C)(C)C(=O)[C@@H]2CC3C4=CC(=O)O[C@@H](c5ccoc5)[C@]4(C)CCC3C1(C)C2=O (stereo partly drawn) | > 4 mM (inactive)
43 | COc1cccc(-c2nc3ccc(O)cc3c(=O)o2)c1 | > 4 mM (inactive)
44 | O=C(Nc1ccccc1)NC1CCS(=O)(=O)C1 (stereo not drawn) | > 4 mM (inactive)

Row | SMILES | Kd
45 | O=C(Nc1ccc2c(c1)OCO2)c1cccc(F)c1 | > 4 mM (inactive)
46 | O=S1(=O)CCC(NC(=S)Nc2ccccn2)C1 (stereo not drawn) | > 4 mM (inactive)
47 | O=C(Nc1ccc(N2CCCC2=O)cc1)c1cccc(F)c1 | > 4 mM (inactive)
48 | O=C(NC(=S)NCc1cccnc1)c1ccco1 | > 4 mM (inactive)
49 | Cc1nc(N)sc1C(=O)N/N=C/c1ccncc1 | > 4 mM (inactive)
50 | OC/C=C/c1ccc(O)c(O)c1 | > 4 mM (inactive)
51 | CC(=O)Nc1ccc2c(c1)n(C)c(=O)n2C | > 4 mM (inactive)
52 | OCCNC(=S)Nc1ccccc1 | > 4 mM (inactive)
53 | CC(=O)Nc1ccccc1-c1ccccc1NC(C)=O | > 4 mM (inactive)
54 | O=C(O)c1cc2ccccc2cn1 | > 4 mM (inactive)
55 | O=C(O)CCN1CCc2ccccc2C1c1ccncc1 (stereo not drawn) | > 4 mM (inactive)
56 | OCc1csc(-c2cccs2)n1 | > 4 mM (inactive)
57 | Cc1scc(C(=O)Nc2ccon2)c1-c1ccccc1 | > 4 mM (inactive)
58 | N=Cc1c(O)n(-c2cccc(Cl)c2)c(=O)[nH]c1=O | > 4 mM (inactive)
59 | Cc1csc2nc3ccccc3c(=O)n12 | > 4 mM (inactive)
60 | CC(C)=CC1C(CO)C1(C)C (stereo not drawn) | > 4 mM (inactive)
61 | OC12CC3CC(CC(C3)C1)C2 | > 4 mM (inactive)
62 | O=C(Nc1nnc(-c2ccccc2Cl)o1)c1ccco1 | > 4 mM (inactive)
63 | O=c1c(-c2cccs2)[n+]([O-])c2ccccc2n1O | > 4 mM (inactive)
64 | CC(=O)Nc1cnn(-c2ccccc2)c(=O)c1Cl | > 4 mM (inactive)
65 | O=C(c1cc(Cl)cc(Cl)c1)N1CCOCC1 | > 4 mM (inactive)
66 | S=C(NC1=NCCS1)Nc1ccccc1 | > 4 mM (inactive)

Row | SMILES | Kd
67 | O=C(O)C1NCCc2ccccc21 (stereo not drawn) | > 4 mM (inactive)
68 | CC(C)(C)c1ccc(SCC(N)=O)cc1 | > 4 mM (inactive)
69 | Cn1c(SCC(N)=O)nc2ccccc2c1=O | > 4 mM (inactive)
70 | CN=C1SC(CC(=O)Nc2ccc(O)cc2)C(=O)N1C (stereo not drawn) | > 4 mM (inactive)
71 | Cc1cc(C)c2ccc[n+]([O-])c2c1O | > 4 mM (inactive)
72 | NC(=O)c1ccc(SCC(=O)O)c([N+](=O)[O-])c1 | > 4 mM (inactive)
73 | O=C1N/C(=N\c2ccccn2)SC1Cc1ccccc1 (stereo not drawn) | > 4 mM (inactive)
74 | Cc1occc1C(=O)Nc1ccc(C(N)=O)cc1 | > 4 mM (inactive)
75 | CCCCCc1c2c(cc(O)c1C(=O)O)OC(=O)c1c(cc(OC)cc1C(=O)CCCC)O2 | > 4 mM (inactive)
76 | CNc1ccccc1C(=O)O | > 4 mM (inactive)
77 | O=C(/C=C/c1ccccc1)NC1CCS(=O)(=O)C1 (stereo not drawn) | > 4 mM (inactive)
78 | Cc1nn(CC(=O)N2CCCCC2)c(=O)c2ccccc12 | > 4 mM (inactive)
79 | COc1c(C(C)C)oc2cc3oc(=O)ccc3cc12 | > 4 mM (inactive)
80 | Cc1ccccc1NC(=O)/C=C\C(N)=O | > 4 mM (inactive)
81 | Cc1cc(C(=O)Nc2ccon2)cs1 | > 4 mM (inactive)
82 | C=C1C(=O)OC2CC1C(OC(C)=O)C/C(C)=C/CC/C(C)=C/CC[C@]2(C)O (stereo partly drawn) | > 4 mM (inactive)
83 | Cc1cc(OC(=O)c2c(C)cc(O)cc2O)cc(O)c1C(=O)O | > 4 mM (inactive)
84 | Cc1cc(S(=O)(=O)N2CCOCC2)ccc1F | > 4 mM (inactive)
85 | COc1c(C)c2c(c(O)c1C/C=C(\C)CCC(=O)O)C(=O)OC2 | > 4 mM (inactive)
86 | Cc1cc(C)n2nc(NCc3ccccc3)nc2n1 | > 4 mM (inactive)
87 | COc1ccc(NC(=O)CCCC(=O)O)c(OC)c1 | > 4 mM (inactive)
88 | C/C=C(\C)C(=O)O[C@@H]1c2c(ccc3ccc(=O)oc23)OC(C)(C)[C@@H]1OC(C)=O | > 4 mM (inactive)
